In article PMC7883873, “Discovery of New Catalytic Topoisomerase II Inhibitors for Anticancer Therapeutics” (Frontiers in Oncology, 2021):

How the values were obtained:
TOP2A [1] = target: T1, TOP2A (Homo sapiens, UniProt P11388); assay: DNA relaxation assay (supercoiled pHOT-1 plasmid); format: biochemical; parameters: full-length human TOP2A and TOP2B protein (TopoGEN and Inspiralis respectively); purchased TopoGEN TG1001 (human TOP2 assay kit)
Protocol: (§1) The human TOP2A and TOP2B were used to perform DNA relaxation assays. […] The reaction was incubated at 37C for 2 h and stopped by adding 2 µl of 10% SDS and 1 µl of 250 mM of EDTA, followed by the addition of 50 µg/ml of proteinase K at 45 C for 1 h. The reaction was then resolved by electrophoresis on a 1% agarose gel at 80 V and stained with 0.5 µg/ml ethidium bromide for 15 min. DNA bands were visualized using a gel imager (Gel Doc™ EZ System) and quantified using the Image Studio™ Lite Quantification Software.

TOP2A [2] = target: T1, TOP2A; assay: K-DNA decatenation assay; format: biochemical; parameters: full-length human TOP2A and TOP2B protein (TopoGEN and Inspiralis respectively); purchased TopoGEN TG1001 (human TOP2 assay kit)
Protocol: (§2) The human TOP2 assay kit (#TG1001, TopoGEN, Buena Vista, CO) and TOP2B (HTB205, Inspiralis, UK) were used for K-DNA decatenation assays. […] The reaction was incubated at 37C for 2 h after which 4 µl stop solution (5× buffer is 5% Sarkosyl, 0.125% bromophenol blue, 25% glycerol) was added. The reaction was resolved by electrophoresis on a 0.8% agarose gel at 60 V and stained with 0.5 µg/ml ethidium bromide for 15 min. DNA bands were visualized using a gel imager (Gel Doc™ EZ System) and quantified using the Image Studio™ Lite Quantification Software.

AR-v7 = assay: Immunoblotting of AR protein levels; format: cell-based; conditions: LNCaP and LNCaP95 cells, 0-20 µM
Protocol: (§3) Cell proliferation rates were measured by using the CellTitre 96 AqueousOne kit (Promega) and bromodeoxyuridine (BrdU) assay kit (Millipore) according to the manufacturer’s protocol as we have described ([51]). Cytotoxicity was evaluated by using the commercial kit (CAT# 8078, ThermoFisher). Culture media was collected and used to measure lactate dehydrogenase (LDH) levels by a colorimetric method following the manufacture’s protocol (ThermoFisher). Cell cycling was assessed by using BrdU incorporation into S-phase DNA by using the APC BrdU flow kit (BD Pharmingen; Franklin Lakes, New Jersey) according to the manufacturer’s protocol. 1 mM of BrdU was added to cells and incubated for 6 h. Cells were incubated with anti-BrdU antibody and stained with 7-AAD before processing the cells for flow cytometry ([52]). Immunoblotting assays followed the standard protocol as we have reported ([51]–[53]).

AR full-length (AR-fl) = assay: Immunoblotting of AR protein levels; format: cell-based; conditions: LNCaP and LNCaP95 cells, 0-20 µM
Protocol: as §3

HeLa cells [3] = assay: FACS cell cycle assay; format: cell-based; conditions: 20 µM, 48 h
Protocol: as §3

HeLa cells [4] = assay: LDH cytotoxicity assay; format: cell-based; conditions: 0–20 µM, 48 h
Protocol: as §3

[5] = system: GFP-AR transfected DU145 cells; assay: AR subcellular localization by microscopy; format: cell-based; conditions: 20 µM, 24 h
TOP2A [6] = target: T1, TOP2A; assay: Relaxation and K-DNA decatenation assays of candidates and T60 derivatives (SAR); format: biochemical; parameters: full-length human TOP2A and TOP2B protein (TopoGEN and Inspiralis respectively); purchased TopoGEN TG1001 (human TOP2 assay kit); conditions: compared with T60
Protocol: as §2, §1

TOP2B = TOP2B (Homo sapiens, UniProt Q02880); assay: K-DNA decatenation assay; format: biochemical; parameters: full-length human TOP2A and TOP2B protein (TopoGEN and Inspiralis respectively); purchased Inspiralis HTB205; conditions: densitometry of D-DNA bands; read-out: IC50, inhibition of TOP2B K-DNA decatenation
Protocol: as §2

full-length human TOP2B = target: T2, full-length human TOP2B (Homo sapiens, UniProt Q02880); assay: EMSA with full-length protein; format: binding; conditions: 200 µM; 2 µM protein, 300 nM 5ZRF oligo
T2 construct: full-length human TOP2A and TOP2B protein (TopoGEN and Inspiralis respectively); purchased Inspiralis HTB205
Protocol: (§4) EMSA followed the standard protocols as we and others described with minor modifications ([54]–[56]). The double-strand DNA oligo, 5ZRF (AGCCGAGCTGCAGCTCGGCT labeled by IRDye700) was purchased from IDT (Coralville, USA). Human TOP2 (431–1193), TOP2A (TopoGEN) or TOP2B (Inspiralis) proteins were incubated with 300 nM of 5ZRF oligo in a standard 20 µl EMSA reaction in a reaction buffer containing 20 mM HEPES-NaOH, pH 7.4, 2 mM DTT, 3 mM MgCl2, 0.05% NP-40, protease inhibitors, and 0.1 µg poly[dI:dC]. After incubation for 30 min at 37C, reactions were loaded onto 4% non-denatured polyacrylamide gel in 0.5× TBE buffer. The DNA oligo bands were visualized by using the Li-Cor Odyssey 9120 Infrared Imaging System.

full-length human TOP2A = target: T3, full-length human TOP2A (Homo sapiens, UniProt P11388); assay: EMSA with full-length protein; format: binding; conditions: 200 µM; 2 µM protein, 300 nM 5ZRF oligo
T3 construct: full-length human TOP2A and TOP2B protein (TopoGEN and Inspiralis respectively); purchased TopoGEN TG1001 (human TOP2 assay kit)
Protocol: as §4

TOP2A [7] = target: T1, TOP2A; assay: DNA cleavage assay; format: biochemical; parameters: full-length human TOP2A and TOP2B protein (TopoGEN and Inspiralis respectively); purchased TopoGEN TG1001 (human TOP2 assay kit); conditions: co-treatment with 200 µM etoposide; 1, 100, 200 µM
Protocol: The reactions were incubated in 37C for 30 min and stopped by adding 2 µl of 10% SDS and 1 µl of 250 mM of EDTA, followed by the addition of 50 µg/ml of proteinase K at 45C for 30 min. The reaction was then resolved by electrophoresis on a 1% agarose gel containing […] ethidium bromide in TAE buffer at 60 V. DNA bands were visualized using a gel imager (Gel Doc™ EZ System) and quantified by using the Image Studio™ Lite Quantification Software.

T1 sequence (P11388 whole entry): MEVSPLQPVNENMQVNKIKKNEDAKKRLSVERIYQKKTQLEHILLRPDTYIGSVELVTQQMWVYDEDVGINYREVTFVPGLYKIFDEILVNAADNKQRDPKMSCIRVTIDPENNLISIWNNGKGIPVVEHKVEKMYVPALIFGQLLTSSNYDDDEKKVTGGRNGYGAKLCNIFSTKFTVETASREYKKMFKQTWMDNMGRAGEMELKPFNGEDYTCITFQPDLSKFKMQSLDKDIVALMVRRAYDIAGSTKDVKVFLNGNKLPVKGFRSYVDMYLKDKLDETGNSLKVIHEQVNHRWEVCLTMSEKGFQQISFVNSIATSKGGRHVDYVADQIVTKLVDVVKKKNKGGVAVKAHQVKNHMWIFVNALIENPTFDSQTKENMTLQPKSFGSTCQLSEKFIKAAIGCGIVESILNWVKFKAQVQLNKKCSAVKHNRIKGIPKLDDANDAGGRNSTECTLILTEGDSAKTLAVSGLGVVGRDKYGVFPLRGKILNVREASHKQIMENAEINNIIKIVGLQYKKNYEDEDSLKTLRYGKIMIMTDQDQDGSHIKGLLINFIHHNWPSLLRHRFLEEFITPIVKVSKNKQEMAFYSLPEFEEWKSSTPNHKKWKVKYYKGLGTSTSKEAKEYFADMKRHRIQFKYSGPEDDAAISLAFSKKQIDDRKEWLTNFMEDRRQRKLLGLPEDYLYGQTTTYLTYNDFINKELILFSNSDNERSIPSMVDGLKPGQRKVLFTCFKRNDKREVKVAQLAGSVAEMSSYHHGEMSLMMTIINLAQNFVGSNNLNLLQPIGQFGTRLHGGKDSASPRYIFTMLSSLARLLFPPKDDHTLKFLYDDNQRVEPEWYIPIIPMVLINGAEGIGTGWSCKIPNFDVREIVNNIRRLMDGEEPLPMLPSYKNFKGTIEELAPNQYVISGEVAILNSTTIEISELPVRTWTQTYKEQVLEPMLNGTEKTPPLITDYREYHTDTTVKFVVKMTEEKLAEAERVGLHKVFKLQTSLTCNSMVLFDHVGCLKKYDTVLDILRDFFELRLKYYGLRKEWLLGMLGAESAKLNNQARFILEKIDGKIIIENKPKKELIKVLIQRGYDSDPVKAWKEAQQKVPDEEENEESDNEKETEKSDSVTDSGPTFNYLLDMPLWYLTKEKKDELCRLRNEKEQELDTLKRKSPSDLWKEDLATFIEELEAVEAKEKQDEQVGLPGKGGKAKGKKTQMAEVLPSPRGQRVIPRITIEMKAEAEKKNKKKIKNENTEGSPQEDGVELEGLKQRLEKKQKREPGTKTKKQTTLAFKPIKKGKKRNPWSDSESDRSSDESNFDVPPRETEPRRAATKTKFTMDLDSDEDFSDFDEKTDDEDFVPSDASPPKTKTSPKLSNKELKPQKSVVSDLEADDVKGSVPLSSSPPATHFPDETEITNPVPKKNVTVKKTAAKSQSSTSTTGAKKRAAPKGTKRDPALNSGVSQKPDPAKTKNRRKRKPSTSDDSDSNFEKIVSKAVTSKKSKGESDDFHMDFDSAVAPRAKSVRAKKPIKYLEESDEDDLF
T2 sequence (Q02880 whole entry): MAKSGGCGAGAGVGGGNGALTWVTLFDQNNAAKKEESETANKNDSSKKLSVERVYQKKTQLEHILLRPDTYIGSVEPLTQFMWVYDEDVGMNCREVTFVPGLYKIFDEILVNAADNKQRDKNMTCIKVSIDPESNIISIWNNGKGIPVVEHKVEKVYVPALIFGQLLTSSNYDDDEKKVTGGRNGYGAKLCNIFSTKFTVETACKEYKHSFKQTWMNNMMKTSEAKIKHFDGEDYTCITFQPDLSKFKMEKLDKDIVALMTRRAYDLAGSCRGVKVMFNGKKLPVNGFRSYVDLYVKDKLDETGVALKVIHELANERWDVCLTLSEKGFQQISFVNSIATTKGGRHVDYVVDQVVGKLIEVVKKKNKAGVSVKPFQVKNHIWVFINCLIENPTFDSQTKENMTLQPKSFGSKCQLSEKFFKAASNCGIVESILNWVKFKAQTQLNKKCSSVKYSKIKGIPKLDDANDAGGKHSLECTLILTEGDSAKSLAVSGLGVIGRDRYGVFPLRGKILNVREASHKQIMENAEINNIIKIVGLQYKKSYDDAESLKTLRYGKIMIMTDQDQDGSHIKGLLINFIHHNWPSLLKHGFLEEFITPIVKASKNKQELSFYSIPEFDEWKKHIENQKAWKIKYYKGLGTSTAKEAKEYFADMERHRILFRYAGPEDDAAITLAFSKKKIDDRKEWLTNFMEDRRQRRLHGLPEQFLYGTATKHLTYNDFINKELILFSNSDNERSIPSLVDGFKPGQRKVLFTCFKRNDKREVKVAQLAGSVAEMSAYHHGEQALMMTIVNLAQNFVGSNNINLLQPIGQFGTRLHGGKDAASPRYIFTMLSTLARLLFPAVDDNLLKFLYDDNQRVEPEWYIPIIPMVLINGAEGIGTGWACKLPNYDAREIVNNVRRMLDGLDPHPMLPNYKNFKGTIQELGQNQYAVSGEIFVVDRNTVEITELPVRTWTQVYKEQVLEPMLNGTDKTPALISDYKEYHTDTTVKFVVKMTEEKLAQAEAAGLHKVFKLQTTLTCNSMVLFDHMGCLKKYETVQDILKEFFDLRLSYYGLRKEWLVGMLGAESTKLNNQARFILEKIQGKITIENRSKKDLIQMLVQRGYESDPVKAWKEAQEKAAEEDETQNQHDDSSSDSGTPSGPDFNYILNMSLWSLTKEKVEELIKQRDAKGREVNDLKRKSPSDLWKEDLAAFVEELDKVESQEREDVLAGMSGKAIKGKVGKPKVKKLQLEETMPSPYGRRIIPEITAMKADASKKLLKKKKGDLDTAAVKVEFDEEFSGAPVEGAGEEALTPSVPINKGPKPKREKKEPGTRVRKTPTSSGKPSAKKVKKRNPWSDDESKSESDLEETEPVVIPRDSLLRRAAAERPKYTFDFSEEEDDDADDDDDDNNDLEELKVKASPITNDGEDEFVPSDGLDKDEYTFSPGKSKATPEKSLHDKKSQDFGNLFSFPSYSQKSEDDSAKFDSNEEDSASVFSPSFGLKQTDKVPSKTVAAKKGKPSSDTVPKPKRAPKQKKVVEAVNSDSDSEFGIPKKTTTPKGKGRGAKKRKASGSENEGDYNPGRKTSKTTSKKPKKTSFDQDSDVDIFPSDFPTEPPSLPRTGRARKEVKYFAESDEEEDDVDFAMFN
Chain of TOP2B (Q02880 whole entry): as above
T3 sequence (P11388 whole entry): as the sequence (P11388 whole entry) above

O=C(Nc1ccc(Nc2ccccc2)cc1)c1ccc[nH]c1=S [T60]
Inhibition of TOP2A activity changing supercoiled into relaxed plasmid DNA (TOP2A [1]; Figure 3B): inhibited | IC50 (TOP2A [1]; densitometry of SC bands, read-out: IC50, inhibition of TOP2A plasmid DNA relaxation): ~4.7 µM | Inhibition of TOP2A mediated K-DNA decatenation (TOP2A [2]; Figure 3A): inhibited | IC50 (TOP2A [2]; densitometry of D-DNA bands, read-out: IC50, inhibition of TOP2A K-DNA decatenation): ~0.3 µM | Protein levels of AR-v7 (AR-v7): inhibited the protein levels | Protein levels of AR full-length (AR full-length (AR-fl)): inhibited the protein levels | Cell cycle distribution (HeLa cells [3]): reduced at the G1 phase, but accumulated at S and G2/M phases | Cytotoxicity (LDH release) (HeLa cells [4]): low cytotoxicity | Nuclear localization of GFP-AR, DU145 [5]: reduced nuclear localization | Activity on TOP2 (TOP2A [6]): less active | IC50 (TOP2B): ~3 µM | Interruption of mobility retarded band, full-length TOP2B (full-length human TOP2B): interrupted | Interruption of mobility retarded band, full-length TOP2A (full-length human TOP2A): interrupted | Prevention of etoposide-induced DNA cleavage, TOP2A (TOP2A [7]): prevented
